According to US11453683B1, “KRas G12D inhibitors” (Mirati Therapeutics, Inc., priority 2019, dated 2022):
pIC50: −log10 of the molar value.

Experiments:
[1] = tested on: KRas G12D-mediated phosphorylation of ERK; experiment: Inhibition of KRas G12D-mediated phosphorylation of ERK in AGS cells; type: cell-based; conditions: Homo sapiens; AGS cells expressing G12D, 3 hours, phospho-ERK normalized to GAPDH
How it was run: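 Fixed, methanol-permeabilized; phospho-ERK (Thr202/Tyr204) by in-cell immunofluorescence normalized to GAPDH. Percent of DMSO control, IC50 by 4-parameter fit.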

[2] = molecular target: KRas G12D (Homo sapiens (Human), UniProt P01116, G12D); experiment: KRas G12D Binding Assay (TR-FRET displacement); conditions: TR-FRET displacement of Cy5 labelled tracer, GDP-loaded KRAS G12D, 60 minute incubation at 22° C.
Chain of KRas G12D (P01116 other isoform, or with tags, fused parts or gaps G12D): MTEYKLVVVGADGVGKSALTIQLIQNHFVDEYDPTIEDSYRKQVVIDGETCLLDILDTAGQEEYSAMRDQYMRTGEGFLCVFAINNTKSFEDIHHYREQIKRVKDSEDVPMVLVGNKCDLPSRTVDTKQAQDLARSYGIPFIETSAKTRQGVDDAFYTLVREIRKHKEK
Experimental: After a 60 minute incubation at 22° C., the reaction was measured using a PerkinElmer EnVision multimode plate reader via TR-FRET dual wavelength detection, and the percent of control (POC) calculated using a ratiometric emission factor. […] The POC values were fit to a 4-parameter logistic curve and the IC50 value was determined as the concentration where the curve crosses 50 POC.

SMILES | pIC50 [1] | pIC50 [2]
OCC1CCC2(COc3nc(N4C[C@H]5CC[C@@H](C4)N5)c4cnc(-c5cccc6cccc(Cl)c56)c(F)c4n3)CCCN12 (stereo partly drawn) [Example 135, (7a-(((4-((1R,5S)-3,8-diazabicyclo[3.2.1]octan-3-yl)-7-(8-chloronaphthalen-1-yl)-8-fluoropyrido[4,3-d]pyrimidin-2-yl)oxy)methyl)hexahydro-1H-pyrrolizin-3-yl)methanol] | 5.32 | 8.68
CC(C)(C)c1ccccc1-c1ncc2c(N3CC4CCC(C3)N4)nc(OC[C@@]34CCCN3C[C@H](F)C4)nc2c1F (racemic) [Example 362, 4-((1R,5S)-3,8-diazabicyclo[3.2.1]octan-3-yl)-7-(2-(tert-butyl)phenyl)-8-fluoro-2-((2-fluorotetrahydro-1H-pyrrolizin-7a(5H)-yl)methoxy)pyrido[4,3-d]pyrimidine (racemic, trans)] | 4.98 | 6.98
CC(C)c1cccc2cc(O)cc(-c3ncc4c(N5CC6CCC(C5)N6)nc(OC[C@@]56CCCN5C[C@H](F)C6)nc4c3F)c12 (racemic) [Example 364, 4-(4-((1R,5S)-3,8-diazabicyclo[3.2.1]octan-3-yl)-8-fluoro-2-((2-fluorotetrahydro-1H-pyrrolizin-7a(5H)-yl)methoxy)pyrido[4,3-d]pyrimidin-7-yl)-5-isopropylnaphthalen-2-ol (racemic, trans)] | 6.49 | 8.64
CSc1cccc2cc(O)cc(-c3ncc4c(N5CC6CCC(C5)N6)nc(OCC56CCCN5C[C@H](F)C6)nc4c3F)c12 (mixture of isomers) [Example 372, 4-(4-((1R,5S)-3,8-diazabicyclo[3.2.1]octan-3-yl)-8-fluoro-2-((2-fluorotetrahydro-1H-pyrrolizin-7a(5H)-yl)methoxy)pyrido[4,3-d]pyrimidin-7-yl)-5-(methylthio)naphthalen-2-ol (racemic, trans)] | 7.98 | 9.15
Oc1cc(-c2ncc3c(N4CC5CCC(C4)N5)nc(OC[C@@]45CCCN4C[C@H](F)C5)nc3c2F)c2c(F)cccc2c1 (racemic) [Example 366, 4-(4-((1R,5S)-3,8-diazabicyclo[3.2.1]octan-3-yl)-8-fluoro-2-((2-fluorotetrahydro-1H-pyrrolizin-7a(5H)-yl)methoxy)pyrido[4,3-d]pyrimidin-7-yl)-5-fluoronaphthalen-2-ol (racemic, trans)] | 8.15 | 9.30
C#Cc1c(F)ccc2cc(O)cc(-c3ncc4c(N5CC6CCC(C5)N6)nc(OC[C@]56CCCN5[C@@H](COC(=O)N(C)C)CC6)nc4c3F)c12 [Example 440, ((3R,7aR)-7a-(((4-((1R,5S)-3,8-diazabicyclo[3.2.1]octan-3-yl)-7-(8-ethynyl-7-fluoro-3-hydroxynaphthalen-1-yl)-8-fluoropyrido[4,3-d]pyrimidin-2-yl)oxy)methyl)hexahydro-1H-pyrrolizin-3-yl)methyl dimethyl carbamate] | 8.08 | 9.10
FCC1CCC2(COc3nc(N4C[C@H]5CC[C@@H](C4)N5)c4cnc(-c5cccc6cccc(Cl)c56)c(F)c4n3)CCCN12 (stereo partly drawn) [Example 347, 4-((1R,5S)-3,8-diazabicyclo[3.2.1]octan-3-yl)-7-(8-chloronaphthalen-1-yl)-8-fluoro-2-((3-(fluoromethyl)tetrahydro-1H-pyrrolizin-7a(5H)-yl)methoxy)pyrido[4,3-d]pyrimidine] | 6.34 | 8.68
[2H]C#Cc1cccc2cccc(-c3ncc4c(N5C[C@H]6CC[C@@H](C5)N6)nc(OCC56CCCN5CCC6)nc4c3F)c12 [Example 278, 4-((1R,5S)-3,8-diazabicyclo[3.2.1]octan-3-yl)-7-(8-(ethynyl-d)naphthalen-1-yl)-8-fluoro-2-((tetrahydro-1H-pyrrolizin-7a(5H)-yl)methoxy)pyrido[4,3-d]pyrimidine] | 6.98 | 9.15
